Test results taken from patent US10982100B2, “Slippery liquid-infused porous surfaces and biological applications thereof” (President and Fellows of Harvard College, priority 2011, dated 2021).

How the values were obtained:
[1] = Surface tension of polar and non-polar liquids; assay type: physicochemical
From the text: Fluid-fluid interfacial tension can be measured by many well-established techniques, such as the Wilhelmy plate method, the Du Noüy ring method, and the pendant drop method (e.g., see Drelich et al., in Encyclopedia of Surface and Colloid Science, pp. 3152-3166, Marcel Dekker Inc, 2002, the contents of which is incorporated by reference herein in its entirety). Among all of the techniques, the pendant drop method is among the most popular and versatile technique, which can be easily extended to a two-liquid system. The pendant drop method measures the shape of a fluid-fluid interface and quantifies the shape distortion due to the competition between the fluid-fluid interfacial tension and gravity. In practice, a drop of denser fluid (e.g., Object A) is suspended by a syringe needle in medium X (i.e., air/water/the lubricating fluid). Owing to the influence of gravity, the denser liquid droplet will be deformed as the liquid volume increases. The shape profile of the liquid droplet is captured by an optical system and subsequently analyzed by a computer software when the liquid volume is increased to the maximum possible size (i.e., before the liquid drop is detached from the syringe needle). The interfacial tension of the fluid-fluid interface, γ, can then be deduced from the formula, γ=ΔρgD^2/H, where Δρ is the density difference between the two immiscible fluids, g is gravity, D is equatorial diameter of the liquid droplet, and H is drop shape dependent parameters which is a function of the shape profile of the droplet.

[2] = Contact angles of various liquids on flat solids; assay type: physicochemical; set-up: unit not given here
Protocol: The behavior of liquids on surfaces is described by an equilibrium contact angle. An equilibrium contact angle, θ, is the angle at which a liquid/vapor interface meets a solid surface, which is determined by the interactions across the three interfaces, e.g., solid/liquid/vapor. […] The upper limit is known as the apparent advancing contact angle (θA), whereas the lower limit is referred as the apparent receding contact angle (θR). The difference between these values is known as contact angle hysteresis (i.e., Δθ=θA−θR, where θA≥θ≥θR), which characterizes the liquid repellency of a surface. Conventionally, equilibrium contact angle can be roughly estimated by the average of the advancing and receding angles (i.e., θ=(θA+θR)/2), or by a static contact angle, θstatic (i.e., θ=θstatic).
In practice, contact angle measurement can be performed by a number of different well-established techniques, such as the sessile drop method and the Wilhelmy method. In particular, the sessile drop method is among the most popular technique for contact angle measurement. In this technique, a liquid droplet is deposited on a targeted solid surface, where the liquid profile is captured by an optical system of a goniometer and geometrically fitted to obtain the contact angle. The contact angle measured from a static liquid droplet deposited on the surface is known as the static contact angle, θstatic. Using the same system, advancing contact angle, θA, can be measured while the volume of the drop is increasing until the wetting line starts to advance. Receding contact angle, θR, can be measured by decreasing the volume of the drop and determining the contact angle just before the wetting line recedes. Alternatively, the advancing and the receding angles of the liquid drop can also be determined by gradually tilting the solid surface until the liquid drop starts to move.

[3] = Stable lubricating film for solid-Liquid A-Liquid B combinations, theory versus experiment; assay type: physicochemical; set-up: key: “Y” indicates that Liquid B forms a stable lubricating film, and is not displaced by Object A; “N” indicates that Liquid B is displaced by Object A; conditions: label = Liquid A
From the text: When the relationship holds, the lubricating liquid will stay in intimate contact with the porous solid without being displaced by Liquid A. Note that the equilibrium contact angles were estimated from the average values of the advancing and receding contact angles of Liquid A and the lubricating liquid on the flat solid surface. Satisfying the relationship can help promote the operation stability of the slippery surface where the liquid layer is substantially completely covered by the test liquid (i.e., two-phase environments that involve a single fluid interface between the test liquid and the liquid layer) and where the liquid layer contacts a droplet of the test fluid as well as air (i.e., three-phase environments that involve three fluid interfaces of (i) test liquid-liquid layer, (ii) test liquid-air, and (iii) liquid layer-air). […] Notice that γA and γB are equivalent to γAX and γBX defined in the text, and medium X is air specifically in this context. Variable γAB represents the interfacial tension for Object A-Liquid B interface. […] M., Ind. Eng. Chem. 56, 40-42, 1964; Israelachvili, J. N. Intermolecular and Surface Forces, Academic Press, 2011). The dispersion force contribution of water surface tension […]., Ind. Eng. Chem. 56, 40-42, 1964). S. Epoxy represents silanized epoxy resin substrate.

[4] = system: P. aeruginosa; conditions: 1% and 0.1% concentrations; 3, 6, 9, and 30 hours; 550 nm
[5] = flat solid S. (silanized epoxy)
[6] = Solid Epoxy, Liquid B FC-70, R 1
[7] = Solid Epoxy, Liquid B FC-70, R 2
[8] = Solid S. Epoxy (silanized epoxy resin), Liquid B FC-70, R 2
[9] = Solid Silicon, Liquid B H2O, R 1

Compound	Surface Tension [1] [mN/m]	Measured contact angle θadv ([2]; flat solid Epoxy)	Measured contact angle θrec ([2]; flat solid Epoxy)	Measured contact angle θstatic ([2]; flat solid Epoxy)	Measured contact angle θadv [2, 5]	Measured contact angle θrec [2, 5]	Measured contact angle θstatic [2, 5]	Measured contact angle θadv ([2]; flat solid Silicon)	Measured contact angle θrec ([2]; flat solid Silicon)	Measured contact angle θstatic ([2]; flat solid Silicon)	Stable Film? Exp. [3, 7]	Stable Film? Theory [3, 7]	Stable Film? Exp. [3, 8]	Stable Film? Theory [3, 8]	Stable Film? Exp. [3, 9]	Stable Film? Theory [3, 9]	further results
CCCCCCC [Heptane]	19.9 ± 0.3	–	–	–	–	–	–	–	–	–	–	–	–	–	–	–	–
CCCCCCCCCC [Decane]	23.6 ± 0.1	15.0 ± 1.6	13.7 ± 0.9	14.2 ± 0.7	66.0 ± 4.1	38.5 ± 0.7	60.0 ± 2.8	7.9 ± 1.0	~0.0	<5.0	N	N	Y	Y	N	N	Stable Film? Exp. [3, 6]: N; Stable Film? Theory [3, 6]: N
CCCCCCCCCCCCCCCC [Hexadecane]	27.2 ± 0.2	32.8 ± 1.4	25.7 ± 0.9	30.6 ± 0.4	76.3 ± 1.4	50.0 ± 3.9	70.5 ± 2.0	17.3 ± 1.6	~0.0	5.6 ± 1.1	N	N	Y	Y	N	N	Stable Film? Exp. [3, 6]: N; Stable Film? Theory [3, 6]: Y/N
CCCCCCCCCCCC [Dodecane]	25.3 ± 0.1	–	–	–	–	–	–	–	–	–	–	–	–	–	–	–	–
O=CCCCC=O [glutaraldehyde, reference compound]	–	–	–	–	–	–	–	–	–	–	–	–	–	–	–	–	bacterial growth (optical densities) compared to control culture [4]: massive toxicity
CCCCC [Pentane]	17.2 ± 0.5	~0.0	~0.0	~0.0	36.4 ± 2.5	17.0 ± 1.8	30.8 ± 3.1	<5.0	~0.0	<5.0	N	N	Y	Y	N	Y/N	–
CCCCCCCCCCCCC [Tridecane]	25.9 ± 0.1	28.3 ± 1.1	25.4 ± 0.7	26.9 ± 1.7	72.8 ± 0.2	48.1 ± 3.1	63.5 ± 2.8	–	–	–	N	N	Y	Y	–	–	Stable Film? Exp. [3, 6]: N; Stable Film? Theory [3, 6]: Y/N
CCCCCC [Hexane]	18.6 ± 0.5	~0.0	~0.0	~0.0	52.5 ± 0.3	22.8 ± 1.7	40.1 ± 4.2	<5.0	~0.0	<5.0	N	N	Y	Y	N	Y/N	–
OCC(O)CO [Glycerol]	60.3 ± 1.1	–	–	–	–	–	–	–	–	–	–	–	–	–	–	–	–
OCCO [Ethylene Glycol]	48.1 ± 0.3	–	–	–	–	–	–	–	–	–	–	–	–	–	–	–	–
CCCCCCCCC [Nonane]	22.6 ± 0.2	–	–	–	–	–	–	–	–	–	–	–	–	–	–	–	–
CCCCCCCCCCC [Undecane]	24.6 ± 0.2	–	–	–	–	–	–	–	–	–	–	–	–	–	–	–	–
CCCCCCCC [Octane]	21.4 ± 0.2	9.7 ± 1.2	6.1 ± 0.2	7.9 ± 0.7	57.7 ± 2.5	23.8 ± 4.0	50.7 ± 3.0	<5.0	~0.0	<5.0	N	N	Y	Y	N	N	–
O [Water]	72.4 ± 0.1	100.3 ± 3.1	67.0 ± 4.5	92.6 ± 1.8	118.9 ± 1.7	90.8 ± 0.9	113.1 ± 2.8	14.4 ± 2.7	~0.0	13.1 ± 1.7	Y	Y/N	Y	Y	–	–	Stable Film? Exp. [3, 6]: N; Stable Film? Theory [3, 6]: Y/N; Stable Film? Exp. ([3]; Solid PDMS, Liquid B PDMS, R 1): Y; Stable Film? Theory ([3]; Solid PDMS, Liquid B PDMS, R 1): Y; Stable Film? Exp. ([3]; Solid PP, Liquid B PDMS, R 1): Y; Stable Film? Theory ([3]; Solid PP, Liquid B PDMS, R 1): Y; Stable Film? Exp. ([3]; Solid PP, Liquid B PDMS, R 2): Y; Stable Film? Theory ([3]; Solid PP, Liquid B PDMS, R 2): Y; Stable Film? Exp. ([3]; Solid PTFE, Liquid B PDMS, R 2): Y; Stable Film? Theory ([3]; Solid PTFE, Liquid B PDMS, R 2): Y
